This is an account of results in patent US20250368872A1, “PROTEIN CROSSLINKING AGENT” (CANON KABUSHIKI KAISHA, priority 2023, published 2025).

This assay relates to silk fibroin powder. The assay is described as follows: Evaluation of adsorptivity of groups containing aromatic rings to proteins having a β-sheet structure. The settings on record: for Adsorption rate to fibroin (%): 0.02 mM, 0.15 mL methanol solution on 10 mg silk fibroin powder, air-dried, 0.15 mL water, stirred 5 minutes, supernatant absorbance; for Adsorptivity: class of adsorption rate to fibroin. The assay is classed as binding. The method, then: After distillation of methanol by air-drying, 0.15 mL of water was added. After stirring for 5 minutes, the supernatant was collected. The concentration of groups containing aromatic rings in the collected supernatant liquid and the percentage of adsorption of groups containing aromatic rings to fibroin were calculated by absorbance measurement, and the adsorptivity of groups containing aromatic rings to proteins having a β-sheet structure was evaluated by the following criteria.
“Evaluation A” and “Evaluation B” indicate the level at which groups containing aromatic rings adsorb strongly to proteins having a β-sheet structure, and “Evaluation C” indicates the low adsorptivity of groups containing aromatic rings.
• A: 90% or more • B: 60% or more but less than 90% • C: Less than 60%

Regarding `O=C(O)CCNc1ccc(-c2nc3ccccc3s2)cc1` [Compound 2], the “Adsorption rate to fibroin (%)” value is 79% and the Adsorptivity result is “B (60% or more but less than 90%)”.
With `O=C(O)CCOc1ccccc1-c1nc2ccccc2s1` [Compound 4], the “Adsorption rate to fibroin (%)” value amounted to 71% and the Adsorptivity entry is “B (60% or more but less than 90%)”.
The matching figures for Thioflavin T acid [reference compound]: 91% and “A (90% or more)”.
